The record followed here is patent publication US8263610B2, “Substituted imidazolyl-5,6-dihydrobenzo[N]isoquinoline compounds” (ArQule, Inc., priority 2008, dated 2012).

Each structure is given as a SMILES string.

The target in this assay is T1, FGFR2(N549H) (Homo sapiens, UniProt P21802, N549H).
T1 construct: purchased Millipore 14-742
In words: fluorescent ELISA assay for inhibitors of FGFR2 kinase. Format: biochemical. The note with it: 37 μM Pyk2 substrate, 12.5 μM ATP, 0.5 μM FGFR2 enzyme, 60 minutes. Here is the method: The enzymatic assays described herein are conducted according to the following procedures from commercially available reagents. In one, non limiting, example, a fluorescent ELISA assay is used to identify and characterize inhibitors of FGFR2 kinase as described herein. This heterogeneous assay utilizes a biotinylated peptide with a tyrosine motif as a substrate and an anti-phospho-tyrosine antibody to measure phosphorylation of the substrate. The reaction is initiated by adding the test compound, 37 μM Pyk2 substrate (Midwest Biotech, Cat. #MBT2383), 12.5 μM ATP (Roche, Cat. #11 140 965 001) and 0.5 μM FGFR2 enzyme (Millipore, Cat. #14-742) sequentially to a non-binding polypropylene V-well plate. All reagents are in an assay buffer consisting of: 50 mM Tris-HCL, 0.02 mg/ml BSA, 10 mM MgCl2, 0.1 mM Na3VO4, 1 mM EGTA, 75 μM ATP, 0.01% NP-40, 2 mM DTT and 10% glycerol. The reaction is incubated for 60 minutes. As the reaction proceeds, FGFR2 phosphorylates tyrosines in the peptide. The reaction mixture is then moved to a blocked streptavidin-coated Nunc Maxisorb plate (coated with 100 ng streptavidin from Pierce (Cat. #15-124) per well), allowing for the capture of the biotinylated peptide. Peptides are captured for 30 minutes at room temperature, the phosphorylation of peptides continues during this phase. The reaction is stopped by washing the streptavidin-coated plate 6 times with TBST. Phosphorylated peptide is detected by adding anti-phospho-tyrosine antibody (Cell Signaling, Cat. #9411, diluted 1:3000) to the streptavidin-coated plate. Unbound anti-phospho-tyrosine antibody is removed by washing the streptavidin-coated plate 6 times with TBST. Secondary detection is performed using alkaline phosphatase tagged goat anti-mouse antibody (Pierce, Cat. #31320, diluted 1:4000) for one hour. Unbound secondary antibody is removed by washing the streptavidin-coated plate 6 times with TBST. The fluorescent readout is initiated by adding to the streptavidin-coated plate Promega Attophos substrate (Promega, Cat. #S1000, dilution=6 mg/10 ml), which, when dephosphorylated by alkaline phosphatase, emits a fluorescent signal of 595 nm in wavelength when excited by a signal of 400 nm in wavelength. The reading of the 595 nm signal is done on the Perkin Elmer Envision system. Compounds which prevent FGFR2 from phosphorylating the peptide result in a lower fluorescent signal. The 595 nm fluorescent signal is directly proportional to the activity of FGFR2. Thus, the inhibition of FGFR2 by compounds is monitored by the decrease in the 595 nm fluorescent signal.
(An ELISA detects its analyte on a solid surface through an enzyme-linked reagent.)

T1 sequence (P21802 22-821 N549H): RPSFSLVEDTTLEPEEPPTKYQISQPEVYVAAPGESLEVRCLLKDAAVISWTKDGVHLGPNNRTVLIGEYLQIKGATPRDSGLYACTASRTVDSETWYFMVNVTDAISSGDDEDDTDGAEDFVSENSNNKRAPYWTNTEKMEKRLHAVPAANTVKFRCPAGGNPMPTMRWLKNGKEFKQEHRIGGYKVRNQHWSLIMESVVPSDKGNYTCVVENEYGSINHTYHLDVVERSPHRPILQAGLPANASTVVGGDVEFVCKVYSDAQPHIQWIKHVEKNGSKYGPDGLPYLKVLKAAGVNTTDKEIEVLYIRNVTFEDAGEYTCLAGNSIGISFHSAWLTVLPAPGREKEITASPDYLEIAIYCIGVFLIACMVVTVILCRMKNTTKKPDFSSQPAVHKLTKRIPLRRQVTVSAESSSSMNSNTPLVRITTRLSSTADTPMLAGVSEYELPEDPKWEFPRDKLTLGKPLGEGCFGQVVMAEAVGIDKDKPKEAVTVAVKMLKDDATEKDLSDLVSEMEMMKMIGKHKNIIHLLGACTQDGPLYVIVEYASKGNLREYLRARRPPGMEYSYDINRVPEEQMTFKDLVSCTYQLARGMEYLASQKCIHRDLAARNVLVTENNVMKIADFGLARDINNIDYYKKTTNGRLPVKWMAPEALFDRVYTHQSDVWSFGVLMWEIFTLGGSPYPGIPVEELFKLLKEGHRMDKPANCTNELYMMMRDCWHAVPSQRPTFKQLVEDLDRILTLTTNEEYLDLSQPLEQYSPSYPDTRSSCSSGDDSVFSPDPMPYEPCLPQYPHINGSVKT

By IC50 is commonly meant the point on the concentration scale where inhibition reaches its midpoint. A low value points to inhibition by little substance. `Clc1ccc(C2Cc3cnc4[nH]ncc4c3-c3ccccc32)cc1Cl` (stereo not shown) [7-(3,4-dichlorophenyl)-6,7-dihydro-3H-benzo[f]pyrazolo[3,4-c]isoquinoline]: the concentration for half-maximal inhibition (IC50) amounted to 20.8 µM.

`Fc1ccc(C2Cc3cnc4[nH]ncc4c3-c3ccccc32)cc1` (stereo not shown) [7-(4-fluorophenyl)-6,7-dihydro-3H-benzo[f]pyrazolo[3,4-c]isoquinoline] yielded a 50% inhibitory concentration (IC50) of 4.07 µM. Compared with the last molecule, the IC50 is about 5.1-fold lower.

Molecule `c1ccc(C2Cc3cnc4[nH]ncc4c3-c3ccccc32)cc1` (stereo not shown) [7-phenyl-6,7-dihydro-3H-benzo[f]pyrazolo[3,4-c]isoquinoline] had a half-inhibitory concentration (IC50) of 0.224 µM.

Regarding `Cc1cc(C)c2c(c1)-c1c(cnc3[nH]ncc13)CC2` [8,10-dimethyl-6,7-dihydro-3H-benzo[f]pyrazolo[3,4-c]isoquinoline], 6.81 µM corresponded to half-maximal inhibition (IC50).
